According to patent US8946203B2, “Benzodioxane inhibitors of leukotriene production” (Boehringer Ingelheim International GmbH, priority 2012, dated 2015):

Biological target: T1, human LTA4 hydrolase (Homo sapiens, UniProt P09960)
T1 sequence (P09960 1-611): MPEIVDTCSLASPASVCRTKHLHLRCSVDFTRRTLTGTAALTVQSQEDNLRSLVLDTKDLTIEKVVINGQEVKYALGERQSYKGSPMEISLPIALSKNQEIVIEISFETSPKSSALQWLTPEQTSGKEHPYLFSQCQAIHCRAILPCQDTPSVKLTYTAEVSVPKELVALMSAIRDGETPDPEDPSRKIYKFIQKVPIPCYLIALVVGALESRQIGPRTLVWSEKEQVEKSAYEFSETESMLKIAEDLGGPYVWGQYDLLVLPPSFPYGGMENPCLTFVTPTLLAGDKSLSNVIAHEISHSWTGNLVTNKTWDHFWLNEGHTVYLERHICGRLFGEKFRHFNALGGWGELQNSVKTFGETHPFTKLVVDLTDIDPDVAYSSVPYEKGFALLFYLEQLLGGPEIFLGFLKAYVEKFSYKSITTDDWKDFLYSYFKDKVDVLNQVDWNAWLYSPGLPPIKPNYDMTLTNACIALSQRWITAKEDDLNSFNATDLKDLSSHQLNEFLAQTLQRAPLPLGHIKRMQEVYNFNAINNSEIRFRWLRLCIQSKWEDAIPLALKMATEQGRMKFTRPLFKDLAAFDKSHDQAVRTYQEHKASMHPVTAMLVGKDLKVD
Assay: LTA4H Enzyme assay (cleavage of Arg-AMC, fluorescence)
Format: biochemical
Conditions: LTA4H Enzyme 1 nM, Arg-AMC substrate 50 μM, room temperature 1 h, fluorescence; read-out: IC50 values of LTA4H Enzyme assay
Method: The compounds of the invention are assessed for the ability to interact with human LTA4 hydrolase in an enzymatic assay that measures the ability of the enzyme to cleave the peptide bond of arginyl-aminomethylcoumarin (Arg-AMC). LTA4H Enzyme (1 nM final), Arg-AMC substrate (50 μM final), and compound are combined in a reaction buffer (50 mM Tris-HCl (pH 7.5), 100 mM KCl, 0.5% bovine serum albumin) at room temperature for 1 h. The formation of product is assessed by measuring the fluorescence of aminomethylcoumarin product (excitation wavelength 380 nm/emission wavelength 460 nm).

SMILES	IC50 [nM]
OC[C@@H]1CCCC[C@H]1NCc1ccc([C@H]2COc3ccccc3O2)cc1 [Example 89, [(1R,2R)-2-({4-[(2S)-2,3-dihydro-1,4-benzodioxin-2-yl]benzyl}amino)cyclohexyl]methanol]	1.4
C[C@H]1CN(Cc2ccc([C@H]3COc4ccccc4O3)cc2)CC[C@H]1C(=O)O [Example 212]	0.49
OCCCC1CCN(Cc2ccc(C3COc4ccccc4O3)cc2)CC1 (racemic) [Example 29, 3-{1-[4-(2,3-dihydro-1,4-benzodioxin-2-yl)benzyl]piperidin-4-yl}propan-1-ol]	2.04
O=C(O)[C@@H]1CC[C@H](NCc2ccc([C@H]3COc4ccccc4O3)cc2)C1 [Example 57, (1R,3S)-3-({4-[(2S)-2,3-dihydro-1,4-benzodioxin-2-yl]benzyl}amino)cyclopentane-carboxylic acid]	13.7
CN(C)CCN(Cc1ccc([C@H]2COc3ccccc3O2)cc1)C1CCCCC1 [Example 104, N-cyclohexyl-N-{4-[(2S)-2,3-dihydro-1,4-benzodioxin-2-yl]benzyl}-N′,N′-dimethylethane-1,2-diamine]	0.18
OC1CCN(Cc2ccc([C@@H]3COc4ccccc4O3)cc2)CC1 (single isomer, unassigned) [Example 193]	5.35
CC[C@@H](C)NCc1ccc(C2COc3ccccc3O2)cc1 (mixture of isomers) [Example 24, (2R)-N-[4-(2,3-dihydro-1,4-benzodioxin-2-yl)benzyl]butan-2-amine]	5.9
O=S1(=O)CCCN1C1CCN(Cc2ccc([C@H]3COc4ccccc4O3)cc2)CC1 [Example 224, 1-[(S)-4-(2,3-Dihydro-benzo[1,4]dioxin-2-yl)-benzyl]-4-(1,1-dioxo-1λ^6-isothiazolidin-2-yl)-piperidine]	0.13
COC1CN(Cc2ccc(C3COc4ccccc4O3)cc2)C1 (racemic) [Example 36, 1-[4-(2,3-dihydro-1,4-benzodioxin-2-yl)benzyl]-3-methoxyazetidine]	4.45
O=C(CNCc1ccc(C2COc3ccccc3O2)cc1)N1CCCC1 (racemic) [Example 12, 2-{[4-(2,3-dihydro-1,4-benzodioxin-2-yl)benzyl]amino}-1-(pyrrolidin-1-yl)ethanone]	10.2
COCCOC1CCN(Cc2ccc([C@H]3COc4cccnc4O3)cc2)CC1 [Example 170, (3S)-3-(4-{[4-(2-methoxyethoxy)piperidin-1-yl]methyl}phenyl)-2,3-dihydro[1,4]dioxino[2,3-b]pyridine]	0.47
O[C@H]1CC[C@H](NCc2ccc([C@H]3COc4ccccc4O3)cc2)CC1 [Example 76, trans-4-({4-[(2S)-2,3-dihydro-1,4-benzodioxin-2-yl]benzyl}amino)cyclohexanol]	1.9
NC(=O)[C@H]1CCCC[C@H]1NCc1ccc([C@H]2COc3ccccc3O2)cc1 [Example 86, (1S,2R)-2-({4-[(2S)-2,3-dihydro-1,4-benzodioxin-2-yl]benzyl}amino)cyclohexane-carboxamide]	0.92
O=C1CCCCN1C1CCN(Cc2ccc([C@H]3COc4ccccc4O3)cc2)CC1 [Example 94, 1′-{4-[(2S)-2,3-dihydro-1,4-benzodioxin-2-yl]benzyl}-1,4′-bipiperidin-2-one]	0.45
COC1CN(Cc2ccc([C@H]3COc4cccnc4O3)cc2)C1 [Example 166, (3S)-3-{4-[(3-methoxyazetidin-1-yl)methyl]phenyl}-2,3-dihydro[1,4]dioxino[2,3-b]pyridine]	0.68
O=C(O)c1ccc(C2CCN(Cc3ccc([C@H]4COc5cccnc5O4)cc3)CC2)cc1 [Example 235, 4-(1-{4-[(3S)-2,3-dihydro[1,4]dioxino[2,3-b]pyridin-3-yl]benzyl}piperidin-4-yl)benzoic acid]	0.08

Second part, the compound after the results:

IC50 [nM]	SMILES
0.17	O=C1CCCN1CC1CCCN(Cc2ccc([C@H]3COc4cccnc4O3)cc2)C1 (stereo partly drawn) [Example 163, 1-[(1-{4-[(3S)-2,3-dihydro[1,4]dioxino[2,3-b]pyridin-3-yl]benzyl}piperidin-3-yl)methyl]pyrrolidin-2-one]
0.22	O=C(O)c1ccc(C2CCN(Cc3ccc([C@H]4COc5ccccc5O4)cc3)CC2)cc1 [Example 233, 4-(1-{4-[(2S)-2,3-dihydro-1,4-benzodioxin-2-yl]benzyl}piperidin-4-yl)benzoic acid]
0.77	O=S1(=O)CCN(Cc2ccc(C3COc4cccnc4O3)cc2)CC1 (racemic) [Example 17, 3-{4-[(1,1-dioxidothiomorpholin-4-yl)methyl]phenyl}-2,3-dihydro[1,4]dioxin[2,3-b]pyridine]
1.35	CC1COCCN1Cc1ccc([C@H]2COc3ccccc3O2)cc1 (stereo partly drawn) [Example 107, 4-{4-[(2S)-2,3-dihydro-1,4-benzodioxin-2-yl]benzyl}-3-methylmorpholine]
0.1	NC(=O)N1CCCC12CCN(Cc1ccc([C@H]3COc4ccccc4O3)cc1)C2 (stereo partly drawn) [Example 119, 7-{4-[(2S)-2,3-dihydro-1,4-benzodioxin-2-yl]benzyl}-1,7-diazaspiro[4.4]nonane-1-carboxamide]
0.17	CNC(=O)C1CCN(Cc2ccc([C@H]3COc4cccnc4O3)cc2)CC1 [Example 152, 1-{4-[(3S)-2,3-dihydro[1,4]dioxino[2,3-b]pyridin-3-yl]benzyl}-N-methylpiperidine-4-carboxamide]
0.15	O=C1NCCC12CCN(Cc1ccc([C@H]3COc4ccccc4O3)cc1)CC2 (single isomer, unassigned) [Example 194]
27.5	c1cnc2c(c1)OC[C@@H](c1ccc(CN3CCOCC3)cc1)O2 [Example 205, (R)-3-(4-Morpholin-4-ylmethyl-phenyl)-2,3-dihydro-[1,4]dioxino[2,3-b]pyridine]
0.16	O=C(NC1CCN(Cc2ccc([C@H]3COc4cccnc4O3)cc2)CC1)C1(O)CC1 [Example 223, N-(1-{4-[(3S)-2,3-dihydro[1,4]dioxino[2,3-b]pyridin-3-yl]benzyl}piperidin-4-yl)-1-hydroxycyclopropanecarboxamide]
0.51	CN1CCCC2(CCN(Cc3ccc([C@H]4COc5ccccc5O4)cc3)CC2)C1=O [Example 120, 9-{4-[(2S)-2,3-dihydro-1,4-benzodioxin-2-yl]benzyl}-2-methyl-2,9-diazaspiro[5.5]undecan-1-one]
0.54	O[C@@H]1CCN(Cc2ccc([C@H]3COc4ccccc4O3)cc2)C1 [Example 88, (3R)-1-{4-[(2S)-2,3-dihydro-1,4-benzodioxin-2-yl]benzyl}pyrrolidin-3-ol]
0.12	O=C1CCC2(CCN(Cc3ccc([C@H]4COc5cccnc5O4)cc3)C2)N1 (stereo partly drawn) [Example 127, 7-{4-[(3S)-2,3-dihydro[1,4]dioxino[2,3-b]pyridin-3-yl]benzyl}-1,7-diazaspiro[4.4]nonan-2-one]
1.59	O=C1NCCC12CCN(Cc1ccc([C@@H]3COc4ccccc4O3)cc1)CC2 (single isomer, unassigned) [Example 195]
0.47	c1cnc2c(c1)OC[C@H](c1ccc(CNC3CCCC3)cc1)O2 [Example 135, N-{4-[(3S)-2,3-dihydro[1,4]dioxino[2,3-b]pyridin-3-yl]benzyl}cyclopentanamine]
1.8	COCC(C)NCc1ccc([C@H]2COc3ccccc3O2)cc1 (stereo partly drawn) [Example 72, N-{4-[(2S)-2,3-dihydro-1,4-benzodioxin-2-yl]benzyl}-1-methoxypropan-2-amine]
0.13	O=C1NC(=O)C2(CCN(Cc3ccc([C@H]4COc5cccnc5O4)cc3)CC2)N1 [Example 165, 8-{4-[(3S)-2,3-dihydro[1,4]dioxin[2,3-b]pyridin-3-yl]benzyl}-1,3,8-triazaspiro[4.5]decane-2,4-dione]
0.16	CC(C)(O)C(=O)NC1CCN(Cc2ccc([C@H]3COc4cccnc4O3)cc2)CC1 [Example 221, N-(1-{4-[(3S)-2,3-dihydro[1,4]dioxino[2,3-b]pyridin-4-yl]benzyl}piperidin-4-yl)-2-hydroxy-2-methylpropanamide]
2.36	C[C@H]1CC[C@H](NCc2ccc([C@H]3COc4ccccc4O3)cc2)CC1 [Example 100, trans-N-{4-[(2S)-2,3-dihydro-1,4-benzodioxin-2-yl]benzyl}-4-methylcyclohexanamine]
0.82	CC(=O)N1CCC(NCc2ccc([C@H]3COc4cccnc4O3)cc2)CC1 [Example 153, 1-[4-({4-[(3S)-2,3-dihydro[1,4]dioxino[2,3-b]pyridin-3-yl]benzyl}amino)piperidin-1-yl]ethanone]
2.14	CS(=O)(=O)C1CCN(Cc2ccc(C3COc4ccccc4O3)cc2)CC1 (racemic) [Example 39, 1-[4-(2,3-dihydro-1,4-benzodioxin-2-yl)benzyl]-4-(methylsulfonyl)piperidine]
0.18	CC1CCCN1Cc1ccc([C@H]2COc3ccccc3O2)cc1 (stereo partly drawn) [Example 77, 1-{4-[(2S)-2,3-dihydro-1,4-benzodioxin-2-yl]benzyl}-2-methylpyrrolidine]
